The values below come from patent US12527779B2, “Prostaglandin E2 (PGE2) EP4 receptor antagonists” (Domain Therapeutics, priority 2019, dated 2026).

Molecules are shown by their SMILES. Structures can show the parent of a compound that is named as a salt. Some results are limits rather than exact numbers.

This test has as its target T1, human EP4 (hEP4) receptor (Homo sapiens, UniProt P35408).
T1 construct: expressed in transfected cells; host or cells: HEK-293 T cells, transient co-transfection with polyethylenimine
Briefly: In vitro human EP4 functional antagonist activity using BRET biosensors (cAMP EPAC biosensor, TCS2510 stimulation). The conditions noted are these: antagonist activity vs EC60 TCS2510, hEP4 in HEK-293 T cells. It is filed as cell-based. The essentials:
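Antagonism measured as inhibition of EC60 TCS2510-induced cAMP BRET signal (EPAC luciferase/GFP sensor) in transiently hEP4-expressing HEK-293T cells, following 5 min compound preincubation and 10 min luminescence recording. Plates equilibrated 1 h at 22 °C in HEPES buffer; 10 concentrations over 4.5 logs, duplicate in two independent experiments, sigmoidal variable-slope IC50.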
For orientation: Bioluminescence resonance energy transfer reports proximity on the nanometre scale.

T1 sequence (P35408 whole entry): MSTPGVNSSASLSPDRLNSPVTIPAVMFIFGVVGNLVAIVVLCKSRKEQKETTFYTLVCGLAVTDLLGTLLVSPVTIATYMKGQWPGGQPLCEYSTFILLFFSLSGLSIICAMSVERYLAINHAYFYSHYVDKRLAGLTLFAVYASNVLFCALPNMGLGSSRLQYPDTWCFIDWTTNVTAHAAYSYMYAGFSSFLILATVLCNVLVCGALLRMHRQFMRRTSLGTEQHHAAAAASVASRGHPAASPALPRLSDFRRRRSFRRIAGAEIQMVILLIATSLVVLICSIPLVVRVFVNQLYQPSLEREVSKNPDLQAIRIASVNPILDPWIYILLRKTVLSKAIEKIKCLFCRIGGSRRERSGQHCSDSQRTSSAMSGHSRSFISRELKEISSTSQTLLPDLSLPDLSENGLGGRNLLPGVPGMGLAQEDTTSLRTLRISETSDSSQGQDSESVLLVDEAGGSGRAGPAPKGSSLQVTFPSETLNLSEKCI

As for `C[C@H](NC(=O)C1(N2CC[C@@H](Oc3cccc(Cl)c3)C2)CCC1)c1ccc(C(N)=O)cc1` [Example 172, 4-[(1S)-1-[[1-[(3R)-3-(3-Chlorophenoxy)pyrrolidin-1-yl]cyclobutane-1-carbonyl]amino]ethyl]benzamide, hydrochloride], the IC50 was < 0.1 µM.
For `CC(C)(C(=O)NC[C@H]1CC[C@H](C(=O)O)CC1)N1CC[C@@H](Oc2cccc(C(F)(F)F)c2)C1` [Example 201, (1R,4R)-4-((2-Methyl-2-((R)-3-(3-(trifluoromethyl)phenoxy)pyrrolidin-1-yl)propanamido)methyl)cyclohexane-1-carboxylic acid, hydrochloride], the IC50 was < 0.1 µM.
To `CN(CCOc1ccc(OC(F)(F)F)cc1)C1(C(=O)NC2(c3ccc(C(=O)O)cc3)CC2)CCOCC1` [Example 45, 4-[1-[[4-[2-(4-Trifluoromethoxyphenoxy)ethyl-methyl-amino]tetrahydropyran-4-carbonyl]amino]cyclopropyl]benzoic acid, hydrochloride] belongs < 1 µM; to `C[C@H](NC(=O)C1(N(C)CCOc2ccccc2)CCOCC1)c1ccc(C(N)=O)cc1` [Example 3, N-[(1S)-1-(4-Carbamoylphenyl)ethyl]-4-[methyl(2-phenoxyethyl)amino]tetrahydropyran-4-carboxamide], < 1 µM; to `Cc1ccc(OCCN(C)C2(C(=O)NC3(c4ccc(C(=O)O)cc4)CC3)CCOCC2)cc1` [Example 37, 4-[1-[[4-[2-(4-Methylphenoxy)ethyl-methyl-amino]tetrahydropyran-4-carbonyl]amino]cyclopropyl]benzoic acid, hydrochloride], < 1 µM.
To `C[C@H](NC(=O)C1(c2ccc(OCc3ccccc3)cc2)CCOCC1)c1ccc(C(=O)O)cc1` [Example 88, 4-[(1S)-1-[[4-(4-Benzyloxyphenyl)tetrahydropyran-4-carbonyl]amino]ethyl]benzoic acid] belongs < 1 µM; to `C[C@H](NC(=O)C1(N2CC[C@@H](Oc3cccc(C(F)(F)F)c3)C2)CCOCC1)c1ccccc1Cl` [Example 192, N—((S)-1-(2-Chlorophenyl)ethyl)-4-((R)-3-(3-(trifluoromethyl)phenoxy)pyrrolidin-1-yl)tetrahydro-2H-pyran-4-carboxamide, hydrochloride], < 1 µM; to `O=C(O)c1ccc(C2(NC(=O)C3(N4CC[C@@H](Oc5cccc(OC(F)(F)F)c5)C4)CCOCC3)CC2)cc1` [Example 147, 4-[1-[[4-[(3R)-3-[3-(Trifluoromethoxy)phenoxy]pyrrolidin-1-yl]tetrahydropyran-4-carbonyl]amino]cyclopropyl]benzoic acid, hydrochloride], < 0.1 µM.
In the case of `CN(CCOc1ccccc1F)C1(C(=O)NC2(c3ccc(C(=O)O)cc3)CC2)CCOCC1` [Example 33, 4-[1-[[4-[2-(2-Fluorophenoxy)ethyl-methyl-amino]tetrahydropyran-4-carbonyl]amino]cyclopropyl]benzoic acid, hydrochloride] it was < 0.1 µM.
Turning to `C[C@H](NC(=O)C1(N2CC[C@@H](Oc3cccc(C(F)(F)F)c3)C2)CCOCC1)c1ccc(C(=O)O)cc1` [Example 144, 4-[(1S)-1-[[4-[(3R)-3-[3-(Trifluoromethyl)phenoxy]pyrrolidin-1-yl]tetrahydropyran-4-carbonyl]amino]ethyl]benzoic acid, hydrochloride], the IC50 is < 0.1 µM.
To `COc1cccc(OCCN(C)C2(C(=O)NC3(c4ccc(C(=O)O)cc4)CC3)CCOCC2)c1` [Example 38, 4-[1-[[4-[2-(3-Methoxyphenoxy)ethyl-methyl-amino]tetrahydropyran-4-carbonyl]amino]cyclopropyl]benzoic acid, hydrochloride] belongs < 0.1 µM; to `C[C@H](NC(=O)C1(N2CC[C@@H](Oc3cccc(C(F)(F)F)c3)C2)CCC1)c1ccc(C(=O)O)cc1` [Example 165, 4-[(1S)-1-[[1-[(3R)-3-[3-(Trifluoromethyl)phenoxy]pyrrolidin-1-yl]cyclobutane-1-carbonyl]amino]ethyl]benzoic acid, hydrochloride], < 0.1 µM.
In the case of `Cc1ccc([C@H](C)NC(=O)C2(N3CC[C@@H](Oc4cccc(C(F)(F)F)c4)C3)CCOCC2)cc1` [Example 193, N—((S)-1-(4-Methylphenyl)ethyl)-4-((R)-3-(3-(trifluoromethyl)phenoxy)pyrrolidin-1-yl)tetrahydro-2H-pyran-4-carboxamide, hydrochloride], the IC50 is < 1 µM.
In the case of `CN(CCOc1ccccc1Cl)C1(C(=O)NC2(c3ccc(C(=O)O)cc3)CC2)CCOCC1` [Example 30, 4-[1-[[4-[2-(2-Chlorophenoxy)ethyl-methyl-amino]tetrahydropyran-4-carbonyl]amino]cyclopropyl]benzoic acid, hydrochloride] it was < 0.1 µM; in that of `CCCC(C)COc1ccc(C2(C(=O)N[C@@H](C)c3ccc(C(=O)O)cc3)CCOCC2)cc1` (stereo partly drawn) [Example 84, 4-[(1S)-1-[[4-[4-(2-Methylpentoxy)phenyl]tetrahydropyran-4-carbonyl]amino]ethyl]benzoic acid], < 1 µM; in that of `CN(CCOc1cccc(C#N)c1)C1(C(=O)NC2(c3ccc(C(=O)O)cc3)CC2)CCOCC1` [Example 46, 4-[1-[[4-[2-(3-Cyanophenoxy)ethyl-methyl-amino]tetrahydropyran-4-carbonyl]amino]cyclopropyl]benzoic acid, hydrochloride], < 1 µM.
Consider `C[C@H](NC(=O)C1(NCCOc2cccc(C(F)(F)F)c2)CCOCC1)c1ccc(C(=O)O)cc1` [Example 12, 4-[(1S)-1-[[4-[2-[3-(Trifluoromethyl)phenoxy]ethylamino]tetrahydropyran-4-carbonyl]amino]ethyl]benzoic acid], for which the IC50 is < 0.1 µM.
To `C[C@H](NC(=O)C1(N2CC[C@@H](Oc3cccc(C(F)(F)F)c3)C2)CCOCC1)c1ccc(C#N)cc1` [Example 182, N—((S)-1-(4-Cyanophenyl)ethyl)-4-((R)-3-(3-(trifluoromethyl)phenoxy)pyrrolidin-1-yl)tetrahydro-2H-pyran-4-carboxamide, hydrochloride] belongs < 0.1 µM; to `Cc1cccc(OCCN(C)C2(C(=O)NC3(c4ccc(C(=O)O)cc4)CC3)CCOCC2)c1` [Example 35, 4-[1-[[4-[2-(3-Methylphenoxy)ethyl-methyl-amino]tetrahydropyran-4-carbonyl]amino]cyclopropyl]benzoic acid, hydrochloride], < 0.1 µM; to `CN(CCOc1ccccc1OC(F)(F)F)C1(C(=O)NC2(c3ccc(C(=O)O)cc3)CC2)CCOCC1` [Example 44, 4-[1-[[4-[2-(2-Trifluoromethoxyphenoxy)ethyl-methyl-amino]tetrahydropyran-4-carbonyl]amino]cyclopropyl]benzoic acid, hydrochloride], < 0.1 µM.
To `C[C@H](NC(=O)C1(c2cccc(OCC3CCOCC3)c2)CCOCC1)c1ccc(C(=O)O)cc1` [Example 98, 4-[(1S)-1-[[4-[3-(Tetrahydropyran-4-ylmethoxy)phenyl]tetrahydropyran-4-carbonyl]amino]ethyl]benzoic acid] belongs < 1 µM.
To `CN(CCOc1ccccc1C(F)(F)F)C1(C(=O)NC2(c3ccc(C(=O)O)cc3)CC2)CCOCC1` [Example 42, 4-[1-[[4-[2-(2-Trifluoromethylphenoxy)ethyl-methyl-amino]tetrahydropyran-4-carbonyl]amino]cyclopropyl]benzoic acid, hydrochloride] belongs < 1 µM; to `C[C@H](NC(=O)C1(N2CC[C@@H](Oc3cccc(C(F)(F)F)c3)C2)CCOCC1)c1ccc(C(=O)N(C)C)cc1` [Example 170, 4-[(1S)-1-[[4-[(3R)-3-[3-(Trifluoromethyl)phenoxy]pyrrolidin-1-yl]tetrahydropyran-4-carbonyl]dimethylamino]ethyl]benzamide, hydrochloride], < 0.1 µM; to `C[C@H](NC(=O)C1(c2ccnc(OCC3CCCCC3)c2)CCCC1)c1ccc(C(=O)O)cc1` [Example 124, 4-[(1S)-1-[[1-[2-(Cyclohexylmethoxy)-4-pyridyl]cyclopentanecarbonyl]amino]ethyl]benzoic acid], < 0.1 µM.
Consider `C[C@H](NC(=O)C1(N2CC[C@@H](Oc3cccc(C(F)(F)F)c3)C2)CCOCC1)c1ccccn1` [Example 186, N—((S)-1-(Pyridin-2-yl)ethyl)-4-((R)-3-(3-(trifluoromethyl)phenoxy)pyrrolidin-1-yl)tetrahydro-2H-pyran-4-carboxamide, hydrochloride], for which the IC50 was < 1 µM.
In the case of `C[C@H](NC(=O)C1(c2ccc(OCC3CCCCC3)cn2)CCCC1)c1ccc(C(=O)O)cc1` [Example 127, 4-[(1S)-1-[[1-[5-(Cyclohexylmethoxy)-2-pyridyl]cyclopentanecarbonyl]amino]ethyl]benzoic acid] it was < 1 µM; in that of `COc1cccc(O[C@@H]2CCN(C3(C(=O)N[C@@H](C)c4ccc(C(=O)O)cc4)CCOCC3)C2)c1` [Example 148, 4-[(1S)-1-[[4-[(3R)-3-(3-Methoxyphenoxy)pyrrolidin-1-yl]tetrahydropyran-4-carbonyl]amino]ethyl]benzoic acid, hydrochloride], < 0.1 µM.
In the case of `C[C@H](NC(=O)C(C)(C)N1CC[C@@H](Oc2cccc(C(F)(F)F)c2)C1)c1ccc(S(N)(=O)=O)cc1` [Example 203, 2-Methyl-N—((S)-1-(4-sulfamoylphenyl)ethyl)-2-((R)-3-(3-(trifluoromethyl)phenoxy)pyrrolidin-1-yl)propanamide, hydrochloride] it was < 1 µM.
To `Cc1cccc(OCCN(C)C2(C(=O)N[C@@H](C)c3ccc(C(=O)O)cc3)CCCCC2)c1` [Example 59, 4-[(1S)-1-[[1-[Methyl-[2-(3-methylphenoxy)ethyl]amino]cyclohexanecarbonyl]amino]ethyl]benzoic acid, hydrochloride] belongs < 0.1 µM.

One may read the IC50 as the concentration that gives 50% inhibition.
